PubChem BioAssay (NCI)
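How tested: cells in 96-well plates exposed to compound for 48 hours at five concentrations. Abbreviation: GI50, concentration required for 50% inhibition of growth. TGI: total growth inhibition.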

Legend:
Assay in all cases: NCI-60 cell line screen, 48 h
[1] = test system: SNB-78 CNS
[2] = test system: A498 renal
[3] = test system: SW-620 colon
[4] = test system: LXFL 529 NSCLC
[5] = test system: DMS 273 small cell lung
[6] = test system: OVCAR-4 ovarian
[7] = test system: KM12 colon
[8] = test system: MOLT-4 leukemia
[9] = test system: HS 578T breast
[10] = test system: MDA-MB-435

With CC(=O)C1C(=O)NC(=O)C1=O (stereo unspecified) the TGI [1] was greater than 100 µM, the TGI [2] was greater than 100 µM and the TGI [3] was greater than 100 µM. For the same compound, the TGI [4] was greater than 100 µM, the TGI [5] was greater than 100 µM and the TGI [6] was greater than 100 µM. The TGI [7] was greater than 100 µM.

CC(=O)[O-].[Mn+3].[O-]c1ccccc1C=NCCN=Cc1ccccc1[O-] was tested, and the GI50 [2] was greater than 100 µM, the TGI [2] was greater than 100 µM and the GI50 [3] was greater than 100 µM. The TGI [3] was greater than 100 µM, the GI50 [4] was 50.7 µM and the TGI [4] was greater than 100 µM. It also gave a GI50 [5] greater than 100 µM, a TGI [5] greater than 100 µM and a GI50 [6] greater than 100 µM. For the same compound, the TGI [6] was greater than 100 µM, the GI50 [8] was 25.7 µM and the TGI [8] was greater than 100 µM. For the same compound, the GI50 [7] was 84.9 µM and the TGI [7] was greater than 100 µM.

Work on CN(C)CCNC(=O)c1cccc2c(Nc3ccc(S(N)(=O)=O)cc3)c3ccccc3nc12 yielded a TGI [2] of 7.08 µM, a TGI [3] of 1.96 µM and a TGI [4] of 2.23 µM. For the same compound, the TGI [5] was 3.71 µM, the TGI [6] was 5.77 µM and the TGI [8] was greater than 100 µM.

For CN(/N=C/c1cccc2cccnc12)c1ccc([N+](=O)[O-])cc1, the TGI [1] was greater than 100 µM, the TGI [2] was greater than 100 µM and the TGI [3] was greater than 100 µM. It also gave a TGI [4] greater than 100 µM, a TGI [5] greater than 100 µM and a TGI [8] greater than 100 µM. For the same compound, the TGI [7] was greater than 100 µM.

O/N=C1/C(=C/c2ccc(Oc3ccccc3)cc2)CCCC1C(NO)c1ccc(Oc2ccccc2)cc1 (stereo unspecified) gave a TGI [1] greater than 100 µM, a TGI [3] greater than 100 µM and a TGI [4] greater than 100 µM. The TGI [5] was greater than 100 µM, the TGI [6] was greater than 100 µM and the TGI [8] was 33.2 µM. The TGI [7] was greater than 100 µM.

Compound CCOC(=O)C(=O)Nc1ccc(Cl)cc1C has a TGI [1] greater than 100 µM, a TGI [3] greater than 100 µM and a TGI [4] greater than 100 µM. The TGI [5] was greater than 100 µM, the TGI [6] was greater than 100 µM and the TGI [8] was greater than 100 µM. It also gave a TGI [7] greater than 100 µM.

Cc1nc(-c2ccccc2)cc2c1c(=O)oc1ccccc12 was tested, and the TGI [1] was greater than 100 µM, the TGI [3] was greater than 100 µM and the TGI [4] was greater than 100 µM. It also gave a TGI [5] greater than 100 µM, a TGI [6] greater than 100 µM and a TGI [8] greater than 100 µM. For the same compound, the TGI [7] was greater than 100 µM.

Compound O=c1cc(-c2ccccc2)oc2cc(O)cc(O)c12 has a TGI [1] of 92.5 µM, a TGI [4] of 48.3 µM and a TGI [5] of 34 µM. It also gave a TGI [6] greater than 100 µM, a TGI [8] of 61.1 µM and a TGI [7] of 39.6 µM.

Work on O=C1c2ccccc2NC1(c1ccccc1)c1c(-c2ccccc2)[nH]c2ccccc12 (stereo unspecified) yielded a TGI [1] greater than 100 µM, a TGI [2] greater than 100 µM and a TGI [3] greater than 100 µM. The TGI [4] was greater than 100 µM, the TGI [5] was greater than 100 µM and the TGI [6] was greater than 100 µM. It also gave a TGI [8] of 20.6 µM and a TGI [7] greater than 100 µM.

For CN1C(c2ccccc2)CS(=O)(=O)CS1(=O)=O (stereo unspecified), the TGI [1] was greater than 100 µM, the TGI [2] was greater than 100 µM and the TGI [3] was greater than 100 µM. For the same compound, the TGI [4] was greater than 100 µM, the TGI [5] was greater than 100 µM and the TGI [6] was greater than 100 µM. For the same compound, the TGI [7] was greater than 100 µM.

With O=S(=O)(SCc1ccccc1)C(c1ccccc1)c1ccccc1 the TGI [1] was 75.7 µM, the TGI [2] was greater than 100 µM and the TGI [3] was 26.9 µM. For the same compound, the TGI [4] was greater than 100 µM, the TGI [5] was greater than 100 µM and the TGI [6] was greater than 100 µM. For the same compound, the TGI [8] was 43.7 µM and the TGI [7] was greater than 100 µM.

For COc1ccc(C[C@@H]2NC[C@@H](O)[C@@H]2OC(C)=O)cc1, the GI50 [2] was 1.14 µM, the GI50 [3] was 4.16 µM and the TGI [9] was 0.169 µM. It also gave a TGI [4] of 24.1 µM, a TGI [5] greater than 100 µM and a GI50 [6] of 25.9 µM. The GI50 [8] was 2.81 µM, the TGI [10] was 0.0883 µM and the GI50 [7] was 3.53 µM.

Cc1ccc(NC(=O)C(=O)CC(=O)C2CCOC2=O)c(C)c1 (stereo unspecified) showed a TGI [1] greater than 100 µM, a TGI [2] greater than 100 µM and a TGI [3] greater than 100 µM. For the same compound, the TGI [4] was greater than 100 µM, the TGI [5] was greater than 100 µM and the TGI [6] was greater than 100 µM. It also gave a TGI [7] greater than 100 µM.

With CC1=C(C(=O)NCc2ccccc2)C(c2ccc([N+](=O)[O-])cc2)C(C(=O)NCc2ccccc2)=C(C)N1 the TGI [1] was greater than 100 µM, the TGI [2] was greater than 100 µM and the TGI [3] was greater than 100 µM. The TGI [4] was greater than 100 µM, the TGI [5] was greater than 100 µM and the TGI [6] was 47.9 µM. It also gave a TGI [7] greater than 100 µM.

CC(=O)O[C@H]1CCC2[C@@H]3CCC4=C(O)C(=O)C(C#N)C[C@]4(C)C3CC[C@@]21C (stereo partly specified) gave a TGI [1] greater than 100 µM, a TGI [2] of 0.891 µM and a TGI [3] greater than 100 µM. For the same compound, the TGI [4] was greater than 100 µM, the TGI [5] was greater than 100 µM and the TGI [6] was 90.9 µM. It also gave a TGI [8] greater than 100 µM and a TGI [7] greater than 100 µM.

O=C(c1ccccc1)c1oc2ccc(Br)cc2c1-c1cnn(-c2ccccc2)c1 gave a TGI [1] greater than 100 µM, a TGI [4] greater than 100 µM and a TGI [5] greater than 100 µM. For the same compound, the TGI [6] was greater than 100 µM, the TGI [8] was greater than 100 µM and the TGI [7] was greater than 100 µM.

O=C(Cc1nc2ccccc2s1)C(=O)Nc1cccc(Cl)c1 was tested, and the TGI [1] was greater than 100 µM, the TGI [2] was greater than 100 µM and the TGI [3] was greater than 100 µM. The TGI [4] was greater than 100 µM, the TGI [5] was greater than 100 µM and the TGI [6] was greater than 100 µM. It also gave a TGI [7] greater than 100 µM.

Work on O=C(O)/C(Cl)=C(\Cl)C(=O)NC1C2CC3CC(C2)CC1C3 (stereo unspecified) yielded a TGI [1] greater than 100 µM, a TGI [2] greater than 100 µM and a TGI [3] greater than 100 µM. It also gave a TGI [4] greater than 100 µM, a TGI [5] greater than 100 µM and a TGI [6] greater than 100 µM. It also gave a TGI [8] greater than 100 µM and a TGI [7] of 96.2 µM.

COc1cc(O)c2c(c1)C(=O)C=C(Cl)C2=O showed a TGI [1] greater than 100 µM, a TGI [2] greater than 100 µM and a TGI [3] greater than 100 µM. The TGI [4] was greater than 100 µM, the TGI [5] was greater than 100 µM and the TGI [6] was greater than 100 µM. The TGI [8] was greater than 100 µM and the TGI [7] was greater than 100 µM.

With COc1ccc(N/N=C(\CCN(C)C)c2ccccc2)cc1 the TGI [1] was 26.9 µM, the TGI [2] was 29.6 µM and the TGI [3] was 10.9 µM. For the same compound, the TGI [4] was 3.8 µM, the TGI [5] was 11.1 µM and the TGI [6] was 17.1 µM. For the same compound, the TGI [8] was 44 µM and the TGI [7] was 18 µM.

For O=C(Nc1cccc(Cc2cccc(NC(=O)c3ccccc3)c2)c1)c1ccccc1, the TGI [2] was greater than 100 µM, the TGI [3] was greater than 100 µM and the TGI [4] was greater than 100 µM. For the same compound, the TGI [5] was greater than 100 µM, the TGI [6] was 39.8 µM and the TGI [8] was greater than 100 µM. It also gave a TGI [7] greater than 100 µM.

With CN(CC#N)C1CCCC[C@H]1O (stereo partly specified) the TGI [1] was greater than 100 µM, the TGI [2] was greater than 100 µM and the TGI [3] was greater than 100 µM. For the same compound, the TGI [4] was greater than 100 µM, the TGI [5] was greater than 100 µM and the TGI [6] was greater than 100 µM. For the same compound, the TGI [8] was greater than 100 µM and the TGI [7] was greater than 100 µM.

Compound O=C(CC1(O)C(=O)Nc2ccccc21)c1ccco1 (stereo unspecified) has a TGI [1] greater than 100 µM, a TGI [2] greater than 100 µM and a TGI [3] greater than 100 µM. It also gave a TGI [4] greater than 100 µM, a TGI [5] greater than 100 µM and a TGI [6] greater than 100 µM. The TGI [8] was greater than 100 µM.

For Cc1ccc(C2NC(=O)c3ccccc3N2)s1 (stereo unspecified), the TGI [1] was greater than 100 µM, the TGI [2] was greater than 100 µM and the TGI [3] was greater than 100 µM. For the same compound, the TGI [4] was greater than 100 µM, the TGI [5] was greater than 100 µM and the TGI [8] was greater than 100 µM. It also gave a TGI [7] greater than 100 µM.
